Test results reported in patent US20260199297A1, “FERROPTOSIS INDUCERS TO TREAT CANCER” (The University of Toledo, priority 2022, published 2026).
Where two headings read alike, the source gives them in different places.

Tests used:
[1] = test system: NCI-H522 cells; test: Cytotoxicity (methylene blue cell viability), NCI-H522; assay type: cell-based, human
Description: (§1) Having synthesized the CETZOLE analogs, their cytotoxic activity was evaluated. […] NCI-H522 RV-GFP is the corresponding control with RV-GFP tag, but without SLC7A11 overexpression. […] The cytotoxicity screening was conducted as described previously.
(§2) Cell lines were cultured in a humidified atmosphere containing 10% CO2 in Dulbecco's modified Eagle's medium (Mediatech, Inc) supplemented with 10% fetal bovine serum (Atlanta Biologicals). Cell types used MEFs, HT1080 (human fibrosarcoma cells), NARF2 (osteosarcoma), WI-38 (human embryonic lung fibroblast), MDA MB 231 (breast cancer), HCT-116 (human colon), and NCI-H522 (Non-Small Cell Lung Cancer) cell lines. To determine viability throughout these examples, 5,000 cells were plated per well of a 96-well plate and drugs were added 1 day later. Cells were stained 1 to 3 days later with a saturated solution of methylene blue in 50% ethanol. Plates were rinsed and retained dye was quantified by spectrophotometry. Absorbance was normalized to DMSO and given as 1 or 100% for cell viability. Results are representative of at least two independent experiments. Statistical significance was assessed using the Student's t test. All commercially available chemicals were obtained from Cayman Chemicals unless otherwise noted.

[2] = test system: NCI-H522 GFP-SLC7A11 #8 cells; test: Cytotoxicity (methylene blue cell viability), NCI-H522 clone overexpressing GFP-SLC7A11; assay type: cell-based, human
Description: as §1, §2

[3] = test system: HT-1080 cells; test: Cytotoxicity (methylene blue cell viability), HT-1080; assay type: cell-based, human
Description: as §1, §2

[4] = test system: NARF2 cells; test: Cytotoxicity (methylene blue cell viability), NARF2; assay type: cell-based, human; conditions: read-out: Half maximal inhibitory concentration (IC50), NARF2
Description: as §1, §2

[5] = test system: MDA-MB-231 cells; test: Cytotoxicity (methylene blue cell viability), MDA-MB-231; assay type: cell-based
Description: as §1, §2

[6] = test system: WI38 cells; test: Cytotoxicity on normal cell line WI38; assay type: cell-based, human
Description: (§3) To determine cytotoxicity at a therapeutically more relevant concentration, cells were treated at a single concentration of […] (FIG. 12).
as §2

[7] = test system: MEFs (Mouse Embryonic Fibroblasts); test: Cytotoxicity on normal cell line MEFs; assay type: cell-based; conditions: read-out: Half maximal inhibitory concentration (IC50), Normal Cell Line Mefs
Description: as §3, §2

[8] = test system: NCI-H522 cells; test: Flow cytometry BODIPY-C11 lipid ROS measurement; assay type: cell-based, human; conditions: for speed of cell death (area under graph): NCI-H522; for lipid peroxidation compared to DMSO: NCI-H522, BODIPY-C11, 3 hours
Description: The total cell counts are represented by the area under the graph.
NCI-H522 cells were seeded at 1.5×10^5 cells per 9-cm plate. The next media was replaced with fresh media before treated with drugs along with BODIPY581/591-C11 dye (0.5 μM) (Thermo Fisher). […], and resuspended in 2% FBS containing 1×PBS. Cells were analyzed in FITC channel using a BD LSR Fortessa FAC Scanner. Twenty thousand events per condition were analyzed from three independent samples. The experiments were performed twice, each time with triplicate samples (n=6). Collected data were processed with FlowJo v10 software. Lipid ROS measurement in TR9-7 or NARF2 cells was performed similarly at the indicated conditions as mentioned in the respective figure legends. Where appropriate, dead cells were excluded by gating. When gates were applied, they were identical across samples within an experiment.

[9] = test system: protein bands between 25 kD to 38 kD; test: Competitive binding assay against probe PPd (in-gel fluorescence); set-up: competition of PPd-labelled protein bands, dose-dependent: dose or concentration left out as unconfirmed; conditions: for competition of PPd-labelled protein bands by known ferroptosis inducers: 20 μM concentration, bands 25 kD to 38 kD
[10] = test system: NCI-H522 cells; assay type: cell-based; conditions: human, 3 days
Source text: FIGS. 10A-10C: Results of live cell imaging.
FIG. 16: Evaluation of ferroptosis-inducing character of CETZOLE probes. A three-day ferroptosis rescue assay of NCI-H522 cells treated with DMSO, 1, RSL3, and CETZOLE analogs, and liproxstatin-1 co-treatment, showing significant ferroptosis inducing probes.
The live cell montage images in FIG. 10A show notable ferroptosis-related morphological changes, such as membrane breakage and floating cell debris in the medium. The NCI-H522 cell viability improved overall when cells were co-treated with the radical scavenger liproxstatin-1 (FIG. 10C). […] To confirm this, flow-cytometry was performed to quantify lipid peroxidation using redox-active BODIPY-C11 (FIGS. 11A-11E).
Overall, CETZOLE probes do induce radical-mediated cell death and are therefore indeed ferroptotic agents.
as §2, with “noted. Compound CETZOLE 1 and the analogs were synthesized as highlighted.” for “noted.”

[11] = test system: NCI-H522 RV-GFP cells; test: Cytotoxicity (methylene blue cell viability), NCI-H522 RV-GFP control clone; assay type: cell-based, human; conditions: Table 1, control clone with RV-GFP tag, read-out: Half maximal inhibitory concentration (IC50), NCI-H522 Rv-GFP
Description: as §1, §2

[12] = test system: NCI-H522, NCI-H522 GFP-SLC7A11 #8, NCI-H522 RV-GFP, HT-1080, NARF2 and MDA-MB 231 cell lines; test: Cytotoxicity screening across the tested cell lines; assay type: cell-based; conditions: summary over all tested cell lines; read-out: IC50 values against the tested cell lines
Description: as §1, §2

[13] = test system: NCI-H522 and HT-1080 cancer cell lines, WI38 and MEFs normal cell lines; test: Selective cytotoxicity assay at a single concentration; assay type: cell-based; set-up: dose or concentration left out as unconfirmed; conditions: NCI-H522, HT-1080, WI38, MEFs
Description: Overall, WI38 cells were the most tolerant to the treatment, whereas MEF cells were partially tolerant and relatively less sensitive than both NCI-H522 and HT-1080 cells. To determine cytotoxicity at a therapeutically more relevant concentration, cells were treated at a single concentration of […] (FIG. 12).
as §2, with “noted. Compound CETZOLE 1 and the analogs were synthesized as highlighted.” for “noted.”

[14] = test system: 60 human cancer cell lines; test: NCI 60 human cancer cell line assay, single dose; assay type: cell-based; conditions: single dose of 10 μM, 60 cell lines
Description: The cell lines used in this assay belonged to leukemia, non-small-cell lung cancer, colon cancer, CNS cancer, melanoma, ovarian cancer, renal cancer, prostate cancer, and breast cancer. The compounds were first tested at a single dose of 10 μM.

SMILES: C#Cc1nc(C2=C(C)C(O)CC2)cs1 (racemic) [CETZOLE 1, 3-(2-Ethynylthiazol-4-yl)-2-methylcyclopent-2-en-1-ol, reference compound]
- IC50 ([1]; Homo sapiens, NCI-H522, read-out: Half maximal inhibitory concentration (IC50), Cancer Cell Line NCI-H522): 2.5 ± 0.32 µM
- IC50 ([1]; Homo sapiens, NCI-H522, read-out: Half maximal inhibitory concentration (IC50), NCI-H522): 2.56 ± 0.93 µM
- IC50 ([1]; Homo sapiens, NCI-H522, read-out: IC50, NCI-H522): 2.5 ± 0.32 µM
- IC50 ([2]; Homo sapiens, NCI-H522, read-out: Half maximal inhibitory concentration (IC50), NCI-H522 GFP-SCL7A11 #8): 10.3 ± 3.6 µM
- IC50 ([3]; Homo sapiens, HT-1080, read-out: Half maximal inhibitory concentration (IC50), Cancer Cell Line HT1080): 3.07 ± 1.3 µM
- IC50 ([3]; Homo sapiens, HT-1080, read-out: Half maximal inhibitory concentration (IC50), HT-1080): 3.07 ± 1.3 µM
- IC50 ([3]; Homo sapiens, HT-1080, read-out: IC50, HT-1080): 0.96 ± 0.11 µM
- IC50 ([4]; Homo sapiens): 14.9 ± 1.3 µM
- IC50 ([5]; Homo sapiens, MDA-MB-231, read-out: Half maximal inhibitory concentration (IC50), MDA-MB-231): 6.28 ± 0.73 µM
- IC50 ([5]; Homo sapiens, MDA-MB-231, read-out: IC50, MDA-MB-231): 3.2 ± 0.2 µM
- IC50 ([6]; Homo sapiens, WI-38, read-out: Half maximal inhibitory concentration (IC50), Normal Cell Line WI38): 2.51 ± 0.04 µM
- IC50 ([7]; Mus musculus, Fibroblast): 2.41 ± 0.98 µM
- speed of cell death (area under graph) [8]: induced slower cell death
- lipid peroxidation compared to DMSO [8]: induced lipid peroxidation
- competition of PPd-labelled protein bands by known ferroptosis inducers [9]: compete out the same protein bands
- competition of PPd-labelled protein bands, dose-dependent ([9]; three bands 25 kD to 38 kD): completely competed out

SMILES: C#CCCC(=O)Nc1ccc(C(=O)c2ccc(NC(=O)CO/N=C3\CC(c4csc(C#C)n4)=C(C)C3O)cc2)cc1 (stereo not drawn) [PPe, (E)-N-(4-(4-(2-(((4-(2-Ethynylthiazol-4-yl)-2-hydroxy-3-methylcyclopent-3-en-1-ylidene)amino)oxy)acetamido)benzoyl)phenyl)pent-4-ynamide]
- IC50 ([1]; Homo sapiens, NCI-H522, Table 3, probes and negative controls, read-out: IC50, NCI-H522): 2.6 ± 0.11 µM
- IC50 ([3]; Homo sapiens, HT-1080, Table 3, probes and negative controls, read-out: IC50, HT-1080): 1.2 ± 0.01 µM
- IC50 ([5]; Homo sapiens, MDA-MB-231, Table 3, probes and negative controls, read-out: IC50, MDA-MB-231): 1.33 ± 0.02 µM
- cell viability on liproxstatin-1 co-treatment (rescue) [10]: 45%

SMILES: COC(=O)c1ccc([C@@H]2c3[nH]c4ccccc4c3C[C@@H](C(=O)OC)N2C(=O)CCl)cc1 [RSL3, reference compound]
- IC50 ([1]; Table 1, NCI-H522 cancer cell line, read-out: Half maximal inhibitory concentration (IC50), NCI-H522): 1.1 ± 0.89 µM
- IC50 ([1]; Table 2, read-out: Half maximal inhibitory concentration (IC50), Cancer Cell Line NCI-H522): 1.1 ± 0.89 µM
- IC50 ([2]; Table 1, NCI-H522 clone overexpressing GFP-tagged SLC7A11, read-out: Half maximal inhibitory concentration (IC50), NCI-H522 GFP-SCL7A11 #8): 2.84 ± 0.9 µM
- IC50 [11]: 0.31 ± 0.04 µM
- IC50 ([3]; Table 1, HT-1080 fibrosarcoma cell line, read-out: Half maximal inhibitory concentration (IC50), HT-1080): 0.14 ± 0.08 µM
- IC50 ([3]; Table 2, read-out: Half maximal inhibitory concentration (IC50), Cancer Cell Line HT1080): 0.14 ± 0.1 µM
- IC50 ([4]; Table 1, NARF2 osteosarcoma cells): 2.46 ± 0.76 µM
- IC50 ([5]; Table 1, MDA-MB-231 breast cancer cell line, read-out: Half maximal inhibitory concentration (IC50), MDA-MB-231): 0.22 ± 0.02 µM
- IC50 ([6]; Table 2, lung tissue fibroblast, read-out: Half maximal inhibitory concentration (IC50), Normal Cell Line WI38): 0.05 ± 0.01 µM
- IC50 ([7]; Table 2, Mouse Embryonic Fibroblasts): 0.04 ± 0.02 µM
- IC50 [12]: 0.14 to 2.84 µM
- cell death at a single concentration [13]: killed all cell lines indiscriminately
- competition of PPd-labelled protein bands by known ferroptosis inducers [9]: compete out the same protein bands

SMILES: C#Cc1nc(C2=C(C)/C(=N/OCc3ccccc3)CC2)cs1 [compound 23, (E)-3-(2-Ethynylthiazol-4-yl)-2-methylcyclopent-2-en-1-one O-benzyl oxime]
- IC50 ([1]; Homo sapiens, NCI-H522, Table 2, read-out: Half maximal inhibitory concentration (IC50), Cancer Cell Line NCI-H522): 1.36 ± 0.11 µM
- IC50 ([1]; Homo sapiens, Table 1, NCI-H522 cancer cell line, read-out: Half maximal inhibitory concentration (IC50), NCI-H522): 1.36 ± 0.11 µM
- IC50 ([2]; Homo sapiens, Table 1, NCI-H522 clone overexpressing GFP-tagged SLC7A11, read-out: Half maximal inhibitory concentration (IC50), NCI-H522 GFP-SCL7A11 #8): 2.41 ± 1.16 µM
- IC50 ([11]; Homo sapiens, NCI-H522): 2.54 ± 0.44 µM
- IC50 ([3]; Homo sapiens, HT-1080, Table 2, read-out: Half maximal inhibitory concentration (IC50), Cancer Cell Line HT1080): 0.81 ± 0.14 µM
- IC50 ([3]; Homo sapiens, Table 1, HT-1080 fibrosarcoma cell line, read-out: Half maximal inhibitory concentration (IC50), HT-1080): 0.81 ± 0.14 µM
- IC50 ([4]; Homo sapiens, Table 1, NARF2 osteosarcoma cells): 19.3 ± 5.9 µM
- IC50 ([5]; Homo sapiens, Table 1, MDA-MB-231 breast cancer cell line, read-out: Half maximal inhibitory concentration (IC50), MDA-MB-231): 4.17 ± 0.39 µM
- IC50 ([6]; Homo sapiens, WI-38, Table 2, lung tissue fibroblast, read-out: Half maximal inhibitory concentration (IC50), Normal Cell Line WI38): 2.51 ± 0.81 µM
- IC50 ([7]; Fibroblast, Table 2, Mouse Embryonic Fibroblasts): 1.09 ± 0.46 µM
- cell viability on liproxstatin-1 co-treatment (rescue) [10]: 85%
- speed of cell death (area under graph) [8]: induced slower cell death
- lipid peroxidation compared to DMSO [8]: induced lipid peroxidation
- cell death at a single concentration [13]: did not induce cell death
- mean percentage growth [14]: 27.24
